US20210269434A1, “TRICYCLIC COMPOUNDS AS INHIBITORS OF KRAS” (Incyte Corporation, priority 2020, published 2021)

Experiments:
KRAS G12C = KRAS G12C (Homo sapiens, UniProt P01116, G12C); experiment: GDP-GTP exchange assay (KRAS_G12C exchange); type: biochemical; conditions: bodipy-GDP loaded KRAS G12C 2.5 nM, SOS1 150 nM, GppNHp; 2 hours pre-incubation, 2 hours reaction; read-out: G12C_exchange
In short: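 Fluorescence exchange of bodipy-GDP for GppNHp, SOS1-driven, read at 485/520 nm; IC50 from four-parameter variable-slope fit. Both mutants used 2.5 nM final labelled protein and a 2 h compound pre-incubation. G12C reaction had 500 uM GppNHp and 150 nM SOS1 for 2 h; G12D ran 4 h.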

[1] = system: MIA PaCa-2 (KRAS G12C) cells; experiment: Cellular pERK HTRF assay (KRAS_G12C pERK); type: cell-based, human; conditions: Homo sapiens, MIA PaCa-2, 4 hours incubation, read-out: G12C_pERK
In short: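 MIA PaCa-2 cells plated overnight, then exposed to compound for 4 h at 37 °C (G12C compounds). Phospho-ERK1/2 measured in lysates by HTRF (665/620 nm) after overnight antibody incubation; IC50 from percent inhibition versus log concentration.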

Sequence of KRAS G12C (P01116 1-188 isoform P01116-2 G12C): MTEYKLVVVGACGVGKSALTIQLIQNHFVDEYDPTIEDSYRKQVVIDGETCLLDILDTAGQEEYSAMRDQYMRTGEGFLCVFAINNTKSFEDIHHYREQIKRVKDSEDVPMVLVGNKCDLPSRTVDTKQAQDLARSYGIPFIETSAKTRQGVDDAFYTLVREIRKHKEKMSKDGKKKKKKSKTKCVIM

SMILES | IC50 (KRAS G12C) [nM] | IC50 [1] [nM]
C=CC(=O)N1CC[C@H](n2cnc3c(N4CC(N(C)C)C4)nc4c(F)c(-c5ccc(C)cc5C)c(Cl)cc4c32)C[C@H]1CC#N [Example 59, 2-((2S,4S)-1-acryloyl-4-(8-chloro-4-(3-(dimethylamino)azetidin-1-yl)-7-(2,4-dimethylphenyl)-6-fluoro-1H-imidazo[4,5-c]quinolin-1-yl)piperidin-2-yl)acetonitrile] | ≤ 100 | ≤ 100
C=CC(=O)N1CC[C@H](n2cnc3c(N4CC(N(C)C)C4)nc4c(F)c(-c5cc(C)ccc5C)c(Cl)cc4c32)C[C@H]1CC#N [Example 60, 2-((2S,4S)-1-acryloyl-4-(8-chloro-4-(3-(dimethylamino)azetidin-1-yl)-7-(2,5-dimethylphenyl)-6-fluoro-1H-imidazo[4,5-c]quinolin-1-yl)piperidin-2-yl)acetonitrile] | ≤ 100 | ≤ 100
C=CC(=O)N1CC[C@H](n2cnc3c(N4CC(N(C)C)C4)nc4c(F)c(-c5cccc(Cl)c5C)c(Cl)cc4c32)C[C@H]1CC#N [Example 61, 2-((2S,4S)-1-acryloyl-4-(8-chloro-7-(3-chloro-2-methylphenyl)-4-(3-(dimethyl-amino)azetidin-1-yl)-6-fluoro-1H-imidazo[4,5-c]quinolin-1-yl)piperidin-2-yl)acetonitrile] | ≤ 100 | ≤ 100
C=CC(=O)N1C[C@H](n2cnc3c(N4CC(N(C)C)C4)nc4c(F)c(-c5cccc(C)c5C)c(Cl)cc4c32)C[C@@H]1CC#N [Example 62, 2-((2R,4R)-1-acryloyl-4-(8-chloro-4-(3-(dimethylamino)azetidin-1-yl)-7-(2,3-dimethylphenyl)-6-fluoro-1H-imidazo[4,5-c]quinolin-1-yl)pyrrolidin-2-yl)acetonitrile] | ≤ 100 | ≤ 100
C=CC(=O)N1C[C@H](n2cnc3c(N4CC(N(C)C)C4)nc4c(F)c(-c5cccc6ccccc56)c(Cl)cc4c32)C[C@@H]1CC#N [Example 63, 2-((2R,4R)-1-acryloyl-4-(8-chloro-4-(3-(dimethylamino)azetidin-1-yl)-6-fluoro-7-(naphthalen-1-yl)-1H-imidazo[4,5-c]quinolin-1-yl)pyrrolidin-2-yl)acetonitrile] | ≤ 100 | ≤ 100
C=CC(=O)N1CC[C@H](n2cnc3c(N4CC(N(C)C)C4)nc4c(F)c(-c5cccc6c5OCCC6)c(Cl)cc4c32)C[C@H]1CC#N [Example 65, 2-((2S,4S)-1-acryloyl-4-(8-chloro-7-(chroman-8-yl)-4-(3-(dimethylamino)-azetidin-1-yl)-6-fluoro-1H-imidazo[4,5-c]quinolin-1-yl)piperidin-2-yl)acetonitrile] | ≤ 100 | ≤ 100
C=CC(=O)N1CC[C@H](n2cnc3c(N4CC(N(C)C)C4)nc4c(F)c(-c5c(OC)ccc6ccccc56)c(Cl)cc4c32)C[C@H]1CC#N [Example 66, 2-((2S,4S)-1-acryloyl-4-(8-chloro-4-(3-(dimethylamino)azetidin-1-yl)-6-fluoro-7-(2-methoxynaphthalen-1-yl)-1H-imidazo[4,5-c]quinolin-1-yl)piperidin-2-yl)acetonitrile] | ≤ 100 | ≤ 100
C=CC(=O)N1CC[C@H](n2cnc3c(N4CC(N(C)C)C4)nc4c(F)c(-c5ccc(F)c6ccccc56)c(Cl)cc4c32)C[C@H]1CC#N [Example 67, 2-((2S,4S)-1-acryloyl-4-(8-chloro-4-(3-(dimethylamino)azetidin-1-yl)-6-fluoro-7-(4-fluoronaphthalen-1-yl)-1H-imidazo[4,5-c]quinolin-1-yl)piperidin-2-yl)acetonitrile] | ≤ 100 | ≤ 100
C=CC(=O)N1CC[C@H](n2cnc3c(N4CC(N(C)C)C4)nc4c(F)c(-c5cccc6cccc(C)c56)c(Cl)cc4c32)C[C@H]1CC#N [Example 68, 2-((2S,4S)-1-acryloyl-4-(8-chloro-4-(3-(dimethylamino)azetidin-1-yl)-6-fluoro-7-(8-methylnaphthalen-1-yl)-1H-imidazo[4,5-c]quinolin-1-yl)piperidin-2-yl)acetonitrile] | ≤ 100 | ≤ 100
C=CC(=O)N1CC[C@H](n2cnc3c(N4CC(N(C)C)C4)nc4c(F)c(-c5cccc6c5OCCO6)c(Cl)cc4c32)C[C@H]1CC#N [Example 69, 2-((2S,4S)-1-acryloyl-4-(8-chloro-7-(2,3-dihydrobenzo[b][1,4]dioxin-5-yl)-4-(3-(dimethylamino)azetidin-1-yl)-6-fluoro-1H-imidazo[4,5-c]quinolin-1-yl)piperidin-2-yl)acetonitrile] | ≤ 100 | ≤ 100
CC#CC(=O)N1CC[C@H](n2cnc3c(N4CC(C)(N(C)C)C4)nc4c(F)c(-c5c(C)c(Cl)cc6[nH]ncc56)c(Cl)cc4c32)C[C@H]1CC#N [Example 81a, 2-((2S,4S)-1-(but-2-ynoyl)-4-(8-chloro-7-(6-chloro-5-methyl-1H-indazol-4-yl)-4-(3-(dimethyl-amino)-3-methylazetidin-1-yl)-6-fluoro-1H-imidazo[4,5-c]quinolin-1-yl)piperidin-2-yl)acetonitrile] | ≤ 100 | ≤ 100
CC#CC(=O)N1CC[C@H](n2cnc3c(N4CC5(CCCN5C)C4)nc4c(F)c(-c5c(C)c(Cl)cc6[nH]ncc56)c(Cl)cc4c32)C[C@H]1CC#N [Example 83a, 2-((2S,4S)-1-(but-2-ynoyl)-4-(8-chloro-7-(6-chloro-5-methyl-1H-indazol-4-yl)-6-fluoro-4-(5-methyl-2,5-diazaspiro[3.4]octan-2-yl)-1H-imidazo[4,5-c]quinolin-1-yl)piperidin-2-yl)acetonitrile] | ≤ 100 | ≤ 100
COC/C=C/C(=O)N1CC[C@H](n2cnc3c(N4CC5(CCCN5C)C4)nc4c(F)c(-c5c(C)c(Cl)cc6[nH]ncc56)c(Cl)cc4c32)C[C@H]1CC#N [Example 84a, 2-((2S,4S)-4-(8-chloro-7-(6-chloro-5-methyl-1H-indazol-4-yl)-6-fluoro-4-(5-methyl-2,5-diazaspiro[3.4]octan-2-yl)-1H-imidazo[4,5-c]quinolin-1-yl)-1-((E)-4-methoxybut-2-enoyl)piperidin-2-yl)acetonitrile] | ≤ 100 | ≤ 100
C=CC(=O)N1CC[C@H](n2nnc3c(OC[C@@H]4CCCN4C)nc4c(F)c(-c5ccc(F)c(Cl)c5)c(Cl)cc4c32)C[C@H]1CC#N [Example 85, 2-((2S,4S)-1-acryloyl-4-(8-chloro-7-(3-chloro-4-fluorophenyl)-6-fluoro-4-(((S)-1-methylpyrrolidin-2-yl)methoxy)-1H-[1,2,3]triazolo[4,5-c]quinolin-1-yl)piperidin-2-yl)acetonitrile] | ≤ 100 | ≤ 100
C=CC(=O)N1CC[C@H](n2nnc3c(OC[C@@H]4CCCN4C)nc4c(F)c(-c5cccc(Cl)c5C)c(Cl)cc4c32)C[C@H]1CC#N [Example 86, 2-((2S,4S)-1-acryloyl-4-(8-chloro-7-(3-chloro-2-methylphenyl)-6-fluoro-4-(((S)-1-methylpyrrolidin-2-yl)methoxy)-1H-[1,2,3]triazolo[4,5-c]quinolin-1-yl)piperidin-2-yl)acetonitrile] | ≤ 100 | ≤ 100
Cc1c(Cl)cccc1-c1c(Cl)cc2c(nc(OC[C@@H]3CCCN3C)c3nnn([C@H]4CCN(C(=O)/C=C/CN(C)C)[C@H](CC#N)C4)c32)c1F [Example 88, 2-((2S,4S)-4-(8-chloro-7-(3-chloro-2-methylphenyl)-6-fluoro-4-(((S)-1-methylpyrrolidin-2-yl)methoxy)-1H-[1,2,3]triazolo[4,5-c]quinolin-1-yl)-1-((E)-4-(dimethylamino)but-2-enoyl)piperidin-2-yl)acetonitrile] | ≤ 100 | ≤ 100
C=CC(=O)N1CC[C@H](n2cnc3c(N4CC(N(C)C)C4)nc4c(F)c(-c5cncc(Cl)c5C)c(Cl)cc4c32)C[C@H]1CC#N [Example 89, 2-((2S,4S)-1-acryloyl-4-(8-chloro-7-(5-chloro-4-methylpyridin-3-yl)-4-(3-(dimethylamino)azetidin-1-yl)-6-fluoro-1H-imidazo[4,5-c]quinolin-1-yl)piperidin-2-yl)acetonitrile] | ≤ 100 | ≤ 100
C=CC(=O)N1CC[C@H](n2cnc3c(N4CC(N(C)C)C4)nc4c(F)c(-c5c(OC)ncc(Cl)c5C)c(Cl)cc4c32)C[C@H]1CC#N [Example 90, 2-((2S,4S)-1-acryloyl-4-(8-chloro-7-(5-chloro-2-methoxy-4-methylpyridin-3-yl)-4-(3-(dimethylamino)azetidin-1-yl)-6-fluoro-1H-imidazo[4,5-c]quinolin-1-yl)piperidin-2-yl)acetonitrile] | ≤ 100 | ≤ 100
CC#CC(=O)N1CC[C@H](n2nnc3c(N4CCOCC4=O)nc4c(F)c(-c5cccc(Cl)c5C)c(Cl)cc4c32)C[C@H]1CC#N [Example 91, 2-((2S,4S)-1-(but-2-ynoyl)-4-(8-chloro-7-(3-chloro-2-methylphenyl)-6-fluoro-4-(3-oxomorpholino)-1H-[1,2,3]triazolo[4,5-c]quinolin-1-yl)piperidin-2-yl)acetonitrile] | ≤ 100 | ≤ 100
CC#CC(=O)N1CC[C@H](n2nnc3c(N4CCN(C)CC4=O)nc4c(F)c(-c5cccc(Cl)c5C)c(Cl)cc4c32)C[C@H]1CC#N [Example 92, 2-((2S,4S)-1-(but-2-ynoyl)-4-(8-chloro-7-(3-chloro-2-methylphenyl)-6-fluoro-4-(4-methyl-2-oxopiperazin-1-yl)-1H-[1,2,3]triazolo[4,5-c]quinolin-1-yl)piperidin-2-yl)acetonitrile] | ≤ 100 | ≤ 100
